Results taken from patent publication US20110300110A1, “ENAMINOCARBONYL COMPOUND/BENEFICIAL ORGANISM COMBINATIONS” (BAYER CROPSCIENCE AG, priority 2008, published 2011).

Tests used:
Assay type in all cases: in vivo
Myzus persicae [1] = assay: Larvae treatment Coccinella: infestation by Myzus persicae on Savoy cabbage; details: Coccinella larvae added
Protocol: (§1) Foliar treatment is carried out using compound (I-5) in a concentration of 75 g of active compound per hectare.
(§2) Drench treatment is carried out using compound (I-5) in a concentration of 10 mg of active compound per plant.
(§3) Foliar treatment with Karate Zeon CS100 as toxic control was carried out in a concentration of 12.5 g of active compound per hectare.
(§4) Beneficial species: Coccinella septempunctata L2 larvae Pest: Myzus persicae
(§5) Each experiment is carried out in 3 repetitions with in each case 2 pot cages with in each case 5 larvae.
(§6) For the experiment, Savoy cabbage plants are grown in pots having a diameter of 14 cm, placed in a breeding cage and infested thoroughly with Myzus persicae. Per experiment, 6 pots having a well-established aphid population are selected and the aphids are rated by estimation of their number. The plants are treated with the active compound solution of the appropriate concentration.
(§7) After the spray coating has dried on, a quartz sand layer of a thickness of about 1 cm is applied to the soil in the pot, and the pot cage is put over the plant. In each case 5 Coccinella larvae are then counted out, and in each case 5 specimen are added to the plants in the pot cage.
(§8) For each plant, at the beginning the Myzus persicae number is estimated at the appropriate points in time and the dead, dying and alive larvae are counted separately. All larvae, i.e. all larvae present on the plant and the surface of the quartz sand base, are counted.

[2] = system: Coccinella septempunctata L2 larvae; assay: Larvae treatment Coccinella: kill of beneficial species larvae on Savoy cabbage
Protocol: as §1, §2, §3, §4, §5, §6, §7, §8

Myzus persicae [3] = assay: Larvae treatment Aphidoletes: infestation by Myzus persicae on Savoy cabbage; details: Savoy cabbage with Aphidoletes larvae
Protocol: as §1, §2, §3
(§9) Beneficial species: Aphidoletes aphidimyza larvae Pest: Myzus persicae
(§10) Each experiment is carried out in 3 repetitions.
(§11) Per plot, 6 Savoy cabbage plants are placed into a planting-out tray and infested with Myzus persicae. About 1 week later, with a well-established Myzus population, the Aphidoletes aphidimyza are added. The application is carried after about 2 weeks once sufficient L2 stage Aphidoletes larvae are present (at least 20 larvae per tray).
(§12) In preparation for the application, the plants are reduced to 4 healthy green leaves.
(§13) Immediately prior to the application, the Myzus population and the number of Aphidoletes larvae are rated. For the application, all 6 plants of a plot are placed onto the turntable, and the amount of spray liquor for 0.666 m^2 is applied while turning slowly. After the application, the trays are placed into the standard cages.
(§14) For each plant, the number of Myzus persicae is estimated at the beginning at the appropriate points in time, and the larvae are counted accurately.

[4] = system: Aphidoletes aphidimyza larvae; assay: Larvae treatment Aphidoletes: kill of beneficial species larvae on Savoy cabbage
Protocol: as §1, §2, §3, §9, §10, §11, §12, §13, §14

Metopolophium dirhodum = assay: Treatment Anthocoris adult: infestation by Metopolophium dirhodum on maize; details: Anthocoris adults added
Protocol: as §1, §2, §3
(§15) Beneficial species: Anthocoris nemoralis adults Pest: Metopolophium dirhodum
(§16) Per experiment, 3 repetitions with in each case 2 pot cages with in each case 5 adults are carried out.
(§17) For the experiment, maize plants are grown in pots having a diameter of 14 cm, placed in a breeding cage and infested thoroughly with Metopolophium dirhodum. Per experiment, 6 pots having a well-established aphid population are selected and the aphids are rated by estimation of their number. The plants are treated with the active compound solution of the appropriate concentration.
(§18) After the spray coating has dried on, a quartz sand layer of a thickness of about 1 cm is applied to the soil in the pot, and the pot cage is put over the plant.
(§19) In each case 5 Anthocoris adults are then counted out, and in each case 5 specimen are added to the plants in the pot cage.
(§20) For each plant, at the beginning the Metopolophium dirhodum number is estimated at the appropriate points in time and the dead, dying and alive adults are counted separately. All adults, i.e. all adults present on the plant and the surface of the quartz sand base, are counted.

[5] = system: Anthocoris nemoralis adults; assay: Treatment Anthocoris adult: kill of beneficial species adults on maize
Protocol: as §1, §2, §3, §15, §16, §17, §18, §19, §20

adult Orius laevigatus = assay: Residual test with adult Orius laevigatus on bell-pepper leaves
Protocol: (§21) Foliar treatment is carried out using compound (I-5) in a concentration of 100 g of active compound per hectare.
(§22) Drench treatment is carried out using compound (I-5) in a concentration of 15 mg of active compound per plant.
(§23) Foliar treatment with Karate Zeon CS100 as toxic control was carried out in a concentration of 12.5 g of active compound per hectare. The active compound in its respective formulation is brought to the required concentration by dilution with water.
Bell-pepper plants cultivated in a greenhouse are treated with the respective active compound solutions. 1, 8, 16 and 23 days after the application, leaves are plucked from the test plants (5 samples per plot). The individual leaves are then mounted in test cages. 10 adult Orius laevigatus are added to each cage. The test cages are placed under controlled conditions in a climatized chamber. The kill of the insects is determined after 24, 48 and 72 hours of exposure.

[6] = system: Macrolophus caliginosus nymphs; assay: Residual test with nymphs of Macrolophus caliginosus on tomato leaves
Protocol: as §21, §22, §23
Tomato plants cultivated in a greenhouse are treated with the respective active compound solutions. 1, 8, 16 and 23 days after the application, leaves are plucked from the test plants (5 samples per plot). The individual leaves are then mounted in test cages. 10 Macrolophus caliginosus nymphs are added to each cage. The test cages are placed under controlled conditions in a climatized chamber. The kill of the insects/larvae is determined after 24, 48 and 72 hours of exposure.

[7] = 5 days after application, drench 10 mg a.i./plant
[8] = 5 days after application, foliar: (I-5) 75 g a.i./ha, Karate Zeon CS100 12.5 g a.i./ha
[9] = prior to application (baseline), drench 10 mg a.i./plant
[10] = prior to application (baseline), foliar: (I-5) 75 g a.i./ha, Karate Zeon CS100 12.5 g a.i./ha
[11] = 0 days after application, drench 10 mg a.i./plant
[12] = 0 days after application, foliar: (I-5) 75 g a.i./ha, Karate Zeon CS100 12.5 g a.i./ha
[13] = 1 day after application, drench 10 mg a.i./plant
[14] = 1 day after application, foliar: (I-5) 75 g a.i./ha, Karate Zeon CS100 12.5 g a.i./ha
[15] = 3 days after application, drench 10 mg a.i./plant
[16] = 3 days after application, foliar: (I-5) 75 g a.i./ha, Karate Zeon CS100 12.5 g a.i./ha
[17] = leaves plucked 1 day after application, drench 15 mg a.i./plant
[18] = leaves plucked 1 day after application, foliar: (I-5) 100 g a.i./ha, Karate Zeon CS100 12.5 g a.i./ha
[19] = leaves plucked 8 days after application, drench 15 mg a.i./plant
[20] = leaves plucked 8 days after application, foliar: (I-5) 100 g a.i./ha, Karate Zeon CS100 12.5 g a.i./ha
[21] = leaves plucked 16 days after application, drench 15 mg a.i./plant
[22] = leaves plucked 16 days after application, foliar: (I-5) 100 g a.i./ha, Karate Zeon CS100 12.5 g a.i./ha
[23] = leaves plucked 23 days after application, drench 15 mg a.i./plant
[24] = leaves plucked 23 days after application, foliar: (I-5) 100 g a.i./ha, Karate Zeon CS100 12.5 g a.i./ha

O=C1C=C(N(Cc2ccc(Cl)nc2)CC(F)F)CO1 [compound (I-5), 4-{[(6-chloropyrid-3-yl)methyl](2,2-difluoroethyl)amino}furan-2(5H)-one]
Infestation by Myzus persicae (number per plant) (Myzus persicae [1]; [7]): 165 number per plant | Infestation by Myzus persicae (number per plant) (Myzus persicae [1]; [8]): 0 number per plant | Infestation by Myzus persicae (number per plant) (Myzus persicae [1]; [9]): 552 number per plant | Infestation by Myzus persicae (number per plant) (Myzus persicae [1]; [10]): 602 number per plant | kill of Coccinella septempunctata larvae [% Abbott] [2, 11]: 0% | kill of Coccinella septempunctata larvae [% Abbott] [2, 12]: 0% | kill of Coccinella septempunctata larvae [% Abbott] [2, 13]: 1.7% | kill of Coccinella septempunctata larvae [% Abbott] [2, 14]: 3.3% | kill of Coccinella septempunctata larvae [% Abbott] [2, 15]: 1.7% | kill of Coccinella septempunctata larvae [% Abbott] [2, 16]: 1.7% | kill of Coccinella septempunctata larvae [% Abbott] [2, 7]: 3.4% | kill of Coccinella septempunctata larvae [% Abbott] [2, 8]: 6.9% | Infestation by Myzus persicae (number per plant) (Myzus persicae [3]; [7]): 19.4 number per plant | Infestation by Myzus persicae (number per plant) (Myzus persicae [3]; [8]): 0 number per plant | Infestation by Myzus persicae (number per plant) (Myzus persicae [3]; [9]): 367 number per plant | Infestation by Myzus persicae (number per plant) (Myzus persicae [3]; [10]): 344 number per plant | kill of Aphidoteles aphidimyza larvae [% Abbott] [4, 11]: 0% | kill of Aphidoteles aphidimyza larvae [% Abbott] [4, 12]: 0% | kill of Aphidoteles aphidimyza larvae [% Abbott] [4, 13]: 3.2% | kill of Aphidoteles aphidimyza larvae [% Abbott] [4, 14]: 10.2% | kill of Aphidoteles aphidimyza larvae [% Abbott] [4, 15]: 4.3% | kill of Aphidoteles aphidimyza larvae [% Abbott] [4, 16]: 10.5% | kill of Aphidoteles aphidimyza larvae [% Abbott] [4, 7]: 7.8% | kill of Aphidoteles aphidimyza larvae [% Abbott] [4, 8]: 15.2% | Infestation by Metopolophium dirhodum (number per plant) (Metopolophium dirhodum; [7]): 2.5 number per plant | Infestation by Metopolophium dirhodum (number per plant) (Metopolophium dirhodum; [8]): 0 number per plant | Infestation by Metopolophium dirhodum (number per plant) (Metopolophium dirhodum; drench 10 mg a.i./plant): 85 number per plant | Infestation by Metopolophium dirhodum (number per plant) (Metopolophium dirhodum; foliar: (I-5) 75 g a.i./ha, Karate Zeon CS100 12.5 g a.i./ha): 78 number per plant | kill of adult Anthocoris nemoralis [% Abbott] [5, 11]: 0% | kill of adult Anthocoris nemoralis [% Abbott] [5, 12]: 0% | kill of adult Anthocoris nemoralis [% Abbott] [5, 13]: 0% | kill of adult Anthocoris nemoralis [% Abbott] [5, 14]: 0% | kill of adult Anthocoris nemoralis [% Abbott] [5, 15]: 1.7% | kill of adult Anthocoris nemoralis [% Abbott] [5, 16]: 3.3% | kill of adult Anthocoris nemoralis [% Abbott] [5, 7]: 3.3% | kill of adult Anthocoris nemoralis [% Abbott] [5, 8]: 6.7% | Activity against adult Orius leavigatus on bell-pepper [% kill calculated according to Schneider-Orelli] (adult Orius laevigatus; [17]): 36.3% | Activity against adult Orius leavigatus on bell-pepper [% kill calculated according to Schneider-Orelli] (adult Orius laevigatus; [18]): 100% | Activity against adult Orius leavigatus on bell-pepper [% kill calculated according to Schneider-Orelli] (adult Orius laevigatus; [19]): 86.7% | Activity against adult Orius leavigatus on bell-pepper [% kill calculated according to Schneider-Orelli] (adult Orius laevigatus; [20]): 98.1% | Activity against adult Orius leavigatus on bell-pepper [% kill calculated according to Schneider-Orelli] (adult Orius laevigatus; [21]): 72.3% | Activity against adult Orius leavigatus on bell-pepper [% kill calculated according to Schneider-Orelli] (adult Orius laevigatus; [22]): 100% | Activity against adult Orius leavigatus on bell-pepper [% kill calculated according to Schneider-Orelli] (adult Orius laevigatus; [23]): 92.1% | Activity against adult Orius leavigatus on bell-pepper [% kill calculated according to Schneider-Orelli] (adult Orius laevigatus; [24]): 100% | Activity against nymphs of Macrolophus caliginosus on tomato [% kill according to Schneider-Orelli] [6, 17]: 0% | Activity against nymphs of Macrolophus caliginosus on tomato [% kill according to Schneider-Orelli] [6, 18]: 52.2% | Activity against nymphs of Macrolophus caliginosus on tomato [% kill according to Schneider-Orelli] [6, 19]: 65.4% | Activity against nymphs of Macrolophus caliginosus on tomato [% kill according to Schneider-Orelli] [6, 20]: 72.2% | Activity against nymphs of Macrolophus caliginosus on tomato [% kill according to Schneider-Orelli] [6, 21]: 35.7% | Activity against nymphs of Macrolophus caliginosus on tomato [% kill according to Schneider-Orelli] [6, 22]: 21.7% | Activity against nymphs of Macrolophus caliginosus on tomato [% kill according to Schneider-Orelli] [6, 23]: 23.6% | Activity against nymphs of Macrolophus caliginosus on tomato [% kill according to Schneider-Orelli] [6, 24]: 41.8%
